Data from US11242508B2, “Methods relating to pluripotent cells” (priority 2014, dated 2022).
Where two headings read alike, the source gives them in different places.

Assays:
Fat somatic cells = experiment: Percent of cells demonstrating pluripotent phenotype after stress treatment; assay type: cell-based, mice; conditions: 1 week-old, after 1 week of stress treatment
Excerpt: (§1) Stress alteration of mature somatic cells procured from various adult tissues. To examine whether ACCs could be generated not only mature lymphocytes but also other types of somatic cells, brain, skin, muscle, fat, bone marrow, lung and liver were harvested from Oct4-GFP (GOF) mice^8. Cells were isolated from the tissue samples, dissociated into single cells, and treated with different physical and or chemical stress conditions. The efficiency of the process to alter the cells differed as a function of both the source of cells and the stress condition(s) to which the cells were exposed (FIG. 7A). The ability of stress to alter mature cells to express Oct4, differed depending on the derivation of cells, but stress was able to alter cells to express Oct4 to some degree in mature cells derived from all three germ layers (FIG. 7A). ACC colonies derived from any mature tissue expressed pluripotent markers, E-cadherin, Nanog, PCAM-1 and AP (data not shown), and ES specific marker genes (FIG. 7B). Significant physical and chemical stresses altered mature somatic cells to revert to a stem cell state, despite of the source of tissues and derivation of the germ layers.
(§2) Exposure to external stimuli-stress treatment. To give a mechanical stress to mature cells, pasture pipette were heated and then stretched to create lumens approximately 50 microns in diameters, and then broken. Mature somatic cells were then triturated through these pipettes for 20 min, and cultured for 7 days. To provide a hypoxic stimulus to mature cells, cells were cultured in a 5% oxygen incubator for 3 weeks. An under nutrition stimulus was provided to mature cells, by culturing the cells in a basic culture medium for 3 weeks. To expose the mature cells to a physiological stress, they were treated with low pH (pH5.5) solution, and cultured for 7 days. Also, cells were given more serious damage. To create pores in mature cell membranes, cells were treated with SLO (Streptolysin O).
(§3) SLO-treated cells were incubated in HBSS containing 10 μg/mL SLO at 37° C. for 50 min and then cultured in culture medium without SLO for 7 days. Cells exposed to under-nutrition stress were cultured in basal medium for 2 to 3 weeks. […] Cells exposed to “Ca” stress were cultured in culture medium containing 2 mM CaCl2) for 2 weeks.
(§4) Fluorescence-Activated Cell Sorting and Flow Cytometry. Cells were prepared according to standard protocols and suspended in 0.1% BSA/PBS on ice prior to FACS. PI (BD Biosciences) was used to exclude dead cells. Cells were sorted on a BD FACSAria SORP and analyzed on a BD LSRII with BD FACSDiva Software (BD Biosciences).

Muscle somatic cells = experiment: as above; assay type: cell-based, mice; conditions: 1 week-old, after 1 week of stress treatment
Excerpt: as §1, §2, §3, §4

Fibroblast = experiment: as above; assay type: cell-based, mice; conditions: 1 week-old, after 1 week of stress treatment
Excerpt: as §1, §2, §3, §4

Lung somatic cells = experiment: as above; assay type: cell-based, mice; conditions: 1 week-old, after 1 week of stress treatment
Excerpt: as §1, §2, §3, §4

[1] = test system: Bone Marrow somatic cells; experiment: as above; assay type: cell-based, mice; conditions: 1 week-old, after 1 week of stress treatment
Excerpt: as §1, §2, §3, §4

mature somatic cells = experiment: STAP cell generation with low pH solution containing ATP; assay type: cell-based; conditions: low pH solution containing ATP versus pH alone
Procedure: When this solution is used in combination with mechanical trituration of mature cells, the results were even more profound. Consequently, described herein is a protocol which incorporates these findings to increase the efficacy of generating STAP cells.
A1. Make a low pH HBSS solution containing ACT as follows and then set aside for use in step A4. […] The pH of this solution is about 3.0.
Place 5 mL of HBSS (with phenol red) [Life Technologies, 14170-161] into a 15 mL tube. Place a clean pH sensor into the HBSS. Titrate in the ACT stock solution, drop by drop, into the HBSS until the desired pH of, e.g., 5.0 is obtained. Mix the solution regularly to ensure that the measurement is accurate.
A4. […] In some embodiments, a volume of 2-3 ml of the cell suspension in a 50 ml tube can be used.

Brain somatic cells = assay type: cell-based, mice; conditions: 1 week-old, after 1 week of stress treatment
Procedure: Exposure to external stimuli-stress treatment. To give a mechanical stress to mature cells, pasture pipette were heated and then stretched to create lumens approximately 50 microns in diameters, and then broken. Mature somatic cells were then triturated through these pipettes for 20 min, and cultured for 7 days. To provide a hypoxic stimulus to mature cells, cells were cultured in a 5% oxygen incubator for 3 weeks. An under nutrition stimulus was provided to mature cells, by culturing the cells in a basic culture medium for 3 weeks. To expose the mature cells to a physiological stress, they were treated with low pH (pH5.5) solution, and cultured for 7 days. Also, cells were given more serious damage. To create pores in mature cell membranes, cells were treated with SLO (Streptolysin O). […]
Cells were prepared according to standard protocols and suspended in 0.1% BSA/PBS on ice prior to FACS. […] Cells were sorted on a BD FACSAria SORP and analyzed on a BD LSRII with BD FACSDiva Software (BD Biosciences).

NK1-R [2] = molecular target: T1, NK1-R (Rattus norvegicus, UniProt P14600); assay type: in vivo; conditions: naïve rats (and rats that received Blank-SAP followed by stem cells, not shown); 30 uL i.t. injection; read-out: IC50, thermal hyperalgesia
T1 construct: from tissue; host or cells: spinal cord of living adult male Sprague-Dawley rats (in vivo, intrathecal dosing)
Procedure: (§5) The highly specific cytotoxin SSP-SAP (20 uL, 1 uM) was injected into the intrathecal (i.t.) space of the male rat spinal cord in order to ablate a large majority of the neurokinin-1 receptor (NK1R)-expressing neurons. Two to 3 weeks later the normally robust hyperalgesic responses to injection of capsaicin (10 uL, 0.1%) in the plantar hindpaw, consisting of mechanical hyperalgesia to stimulation by von Frey filaments and thermal hyperalgesia appearing as a shortening of the latency of withdrawal to a radiant heat source, were almost absent. […] It thus appears that STAP stem cells can restore normal function after specific spinal neuronal loss and present a model for a therapeutic approach to spinal cord injury.
(§6) Adult male S-D rats were first handled for 4-5 days to familiarize them with the test arena, to minimize stress-induced analgesia, and to obtain Naïve and initial Baseline behavioral data. Tactile responsiveness was determined by probing the plantar surface of one hindpaw with a 15 g von Frey filament (VFH), 10 times every 3 secs. Baseline sensitivity, with no treatments and no capsaicin equaled ˜1-2 paw withdrawals per 10 probes. Thermal sensitivity was indicated by the latency for paw withdrawal from a radiant heat source (Hargreaves method: cutoff time set at 18 sec.). Baseline latency ˜16 sec. Before any intrathecal injections, the Naïve rats' responses to capsaicin injection into the hindpaw were determined to be: Tactile: 6 withdrawals/10 VFH probes, and Thermal: 6 sec latency.

NK1-R [3] = assay type: in vivo, rat
Procedure: as §5, §6

NK-1R = assay type: in vivo, rat
Procedure: as §5
as §6, with “Thermal sensitivity was indicated by the latency for paw withdrawal from a radiant heat source (Hargreaves method: cutoff time set at 18 sec.). Baseline latency ˜16 sec.” left out, “latency. […]” for “latency.”

NK1-R [4] = assay type: in vivo, rat; conditions: for IC50: read-out: IC50, tactile hyperalgesia
Procedure: as §5, §6

T1 sequence (P14600 whole entry): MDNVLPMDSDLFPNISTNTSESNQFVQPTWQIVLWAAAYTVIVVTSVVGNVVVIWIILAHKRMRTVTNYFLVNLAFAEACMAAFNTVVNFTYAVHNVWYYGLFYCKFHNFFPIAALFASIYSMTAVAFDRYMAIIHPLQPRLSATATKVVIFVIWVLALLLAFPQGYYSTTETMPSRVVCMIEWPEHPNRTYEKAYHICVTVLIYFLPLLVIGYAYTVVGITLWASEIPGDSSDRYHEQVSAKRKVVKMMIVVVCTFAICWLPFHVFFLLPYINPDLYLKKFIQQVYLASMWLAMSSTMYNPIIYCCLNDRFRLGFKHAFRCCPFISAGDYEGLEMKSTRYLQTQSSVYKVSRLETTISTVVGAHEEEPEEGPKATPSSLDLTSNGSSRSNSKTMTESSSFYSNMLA

Compound	Percent of cells demonstrating pluripotent phenotype (Fat somatic cells) [%]	Percent of cells demonstrating pluripotent phenotype (Muscle somatic cells) [%]	Percent of cells demonstrating pluripotent phenotype (Fibroblast) [%]	Percent of cells demonstrating pluripotent phenotype (Lung somatic cells) [%]	Percent of cells demonstrating pluripotent phenotype [1] [%]	Percent of cells demonstrating pluripotent phenotype (Brain somatic cells) [%]	also measured
Nc1ncnc2c1ncn2[C@@H]1O[C@H](COP(=O)([O-])OP(=O)([O-])OP(=O)(O)O)[C@@H](O)[C@H]1O.O.[Na+].[Na+] [ATP, Adenosine 5′ Triphosphate Disodium Salt Hydrate]	79.6	68.4	25.10	9.8	12.3	–	Efficacy of conversion to STAP cells (mature somatic cells): dramatically increased the efficacy of this conversion
[Ca+2].[Cl-].[Cl-] [Ca, CaCl2]	2.7	1.5	3.5	1.3	1.2	0.8	–
FC(F)(F)c1cc(CO[C@H]2CCCN[C@H]2c2ccccc2)cc(C(F)(F)F)c1 [L-733,060]	–	–	–	–	–	–	IC50 (NK1-R [2]): ~300 µM; IC50 (NK1-R [3]; stem cell-restored rats, i.t. injection, read-out: IC50, thermal hyperalgesia): ~5 µM; Enhancement of potency for inhibition of capsaicin hyperalgesia (NK-1R; STAP stem cell restored rats over Naïve rats or rats that received Blank-SAP): 10-60 times; Inhibition of the restored hyperalgesic response (NK-1R; STAP stem cell-restored rats, i.t. injection at 300 uM): fully inhibited; IC50 (NK1-R [4]; naïve rats (and rats that received Blank-SAP followed by stem cells, not shown), 30 uL i.t. injection): ~300 µM; IC50 (NK1-R [4]; stem cell-restored rats, i.t. injection): ~30 µM
COc1cc(CNC(=O)CCCC/C=C/C(C)C)ccc1O [capsaicin]	–	–	–	–	–	–	Thermal response to capsaicin injection into the hindpaw, latency (NK1-R [3]; Naïve rats, before any intrathecal injections, radiant heat, cutoff 18 sec): 6 s; Tactile response to capsaicin injection into the hindpaw (NK1-R [4]; Naïve rats, before any intrathecal injections, 15 g von Frey filament): 6 withdrawals/10 VFH probes
streptolysin O [SLO]	32.8	20.5	15.2	18.4	13.2	10.3	–
